Measurements published in patent US12728186B2, “Methods and kits for preparing pathogen-inactivated whole blood” (priority 2018, dated 2026).
Values joined by “and” are separate entries in the source; they are usually repeats but may differ in a detail not shown here. Identical values can stand only once.

How the values were obtained:
Type in all cases: physicochemical
[1] = Residual unreacted amustaline by LCMS, Example 3 (1-container vs 3-container kits, PVC1/PVC2/EVA bags)
Protocol: In another study, pathogen-inactivated whole blood was prepared using amustaline and GSH, in 1-container or 3-container kits of the present disclosure, with the 3-container kits comprising second and third bags (e.g., transfer/storage containers) from three different sources (e.g., different plastics materials). The three different transfer/storage containers included a 600 mL container, comprising Transfufol 3226 PVC film (“PVC1”), a second 600 mL container from a different manufacturer comprising Transfufol 3226 PVC film (“PVC2”), and a 750 mL container from Cerus, comprising EVA (ethylene-vinyl acetate) 1800 film (“EVA”). Six ABO-matched whole blood units in anticoagulant were pooled and split into seven units of ~450 mL each. The seven whole blood units were subjected to pathogen inactivation under conditions of no transfer step between containers (e.g., processing performed in the 1-container kit), or two transfer steps between containers (e.g., processing performed in the 3-container kits) of the indicated storage/transfer bag source (Table 4). Amustaline and GSH were added to the whole blood units as described previously by sterile docking of a filter set to the tubing of an input port of the first containers, which contained the whole blood. Unit 1 was treated with amustaline and GSH at 0.2 mM and 2.0 mM final concentrations, respectively, in the first container and incubated at 22° C., with samples taken at 18, 20, 22 and 24 hours, with no container transfers. For units 2-7, amustaline and GSH were added to the whole blood (0.2 mM and 2.0 mM final concentrations, respectively) in the first container, followed by transfer to the second container and incubation at 22° C. for 18 hours. At 18 hours, samples were taken along with transfer of the mixture to the third container and further incubation at 22° C., with additional sampling at 2 hour intervals (20, 22 and 24 hr).
All samples were analyzed by LCMS to determine the level of residual, unreacted amustaline as previously described. […] Following a second transfer (i.e., to third container) at 18 hr and further incubation at 22° C., residual amustaline was less than 1 nM at the 20 hr time point (i.e., 2 hours after bag transfer) for kits with two different container types and approaching 1 nM for kits with the third container type.

[2] = Residual unreacted amustaline by LCMS, Example 6 (treatment in blood collection bags); settings: for Residual amustaline levels in pathogen-inactivated whole blood, 20 hr / Residual amustaline levels in pathogen-inactivated whole blood, 22 hr / Residual amustaline levels in pathogen-inactivated whole blood, 24 hr: 22° C.
Protocol: More specifically, whole blood units were collected from donors and treated in either Teruflex (Terumo, BB*AGD506A2) blood collection bags (Units 2-7) or Leucoflex (MacoPharma, LQE7230LD) blood collection bags (Units 9-14) containing anticoagulant and integrated into a kit of the present disclosure. Six ABO-matched whole blood units were pooled and split into a control unit and six test units of ~450 mL each. Control units 1 and 8 used kits described in previous Examples. A filter set as previously described was sterile docked to the whole blood transfer tubing of the container that had been sealed and severed, followed by addition of amustaline and GSH to final concentrations of about 0.2 mM and 2.0 mM, respectively. GSH was added first, followed by addition of amustaline within 30 minutes. The mixtures were then incubated at 22° C. for 20 hr, with samples taken for analysis and transfer of the mixtures to the second integrally connected container for test Units 2-7 and 9-14, followed by further incubation and sampling at 2 hr intervals (i.e., 22 hr, 24 hr) for all Units as shown in Table 7.

[3] = Residual amustaline, Example 8 (2-container processing before component preparation); settings: Units 2-7
Protocol: Additionally, a study was performed to evaluate plasma and red blood cells prepared from a pathogen-inactivated whole blood composition, either shortly after the whole blood PI treatment process, or after storing the pathogen-inactivated whole blood at 4° C. prior to preparing the plasma and red blood cell components. Donor whole blood units were pooled and split into seven units (e.g., to standardize across units), and subjected to treatment conditions as follows. Unit 1 was the control and treated only with saline, while units 2-7 were treated with amustaline and GSH, at concentrations of about 0.2 mM and 2.0 mM, respectively. Following addition of the amustaline and GSH, or the saline, in the first container (bag), the units were incubated at 22° C. for 22 hours, and then transferred to the second container (bag). Sampling was done at the time of transfer, and also at 24 hours and 26 hours (2 or 4 hours post-transfer, also incubated at 22° C.), for analysis of residual amustaline, hemolysis and/or fibrinogen and Factor VIII levels. […] Additionally, at Days 2, 5 and 7, samples were removed from the stored pathogen-inactivated whole blood, centrifuged to obtain plasma and red blood cells, and similarly analyzed. […]

[4] = Unit 1, control unit (kit of previous Examples, not transferred), collection bag T
[5] = Unit 8, control unit (kit of previous Examples, not transferred), collection bag M
[6] = Units 2-7, treated in Teruflex (T) blood collection bag, to second container at 20 hr
[7] = Units 9-14, treated in Leucoflex (M) blood collection bag, to second container at 20 hr

O=C(CCNc1c2ccccc2nc2ccccc12)OCCN(CCCl)CCCl [amustaline]
Residual amustaline levels in pathogen-inactivated whole blood, 18 hr ([1]; 18 hr (at transfer to third container), Units 2-3, 3 bag kit, 2x transfer, PVC1 transfer bags, 22° C.): 1.75 nM and 1.52 nM
Residual amustaline levels in pathogen-inactivated whole blood, 18 hr ([1]; 18 hr (at transfer to third container), Units 4-5, 3 bag kit, 2x transfer, PVC2 transfer bags, 22° C.): 1.45 nM and 1.48 nM
Residual amustaline levels in pathogen-inactivated whole blood, 18 hr ([1]; 18 hr (at transfer to third container), Units 6-7, 3 bag kit, 2x transfer, EVA transfer bags, 22° C.): 3.11 nM and 3.51 nM
Residual amustaline levels in pathogen-inactivated whole blood, 18 hr ([1]; 18 hr, Unit 1, 1 bag kit, no transfer, 22° C.): 2.16 nM
residual amustaline at the 20 hr time point, kits with the third container type ([1]; 20 hr (2 hours after bag transfer at 18 hr), 3-container kits, third container type, 22° C.): ~1 nM
residual amustaline at the 20 hr time point, kits with two container types ([1]; 20 hr (2 hours after bag transfer at 18 hr), 3-container kits, two different container types, 22° C.): less than 1 nM
Residual amustaline levels in pathogen-inactivated whole blood, 20 hr ([1]; 20 hr (third container from 18 hr), Units 2-3, 3 bag kit, 2x transfer, PVC1 transfer bags, 22° C.): 0.88 nM and 0.78 nM
Residual amustaline levels in pathogen-inactivated whole blood, 20 hr ([1]; 20 hr (third container from 18 hr), Units 4-5, 3 bag kit, 2x transfer, PVC2 transfer bags, 22° C.): 0.85 nM and 0.87 nM
Residual amustaline levels in pathogen-inactivated whole blood, 20 hr ([1]; 20 hr (third container from 18 hr), Units 6-7, 3 bag kit, 2x transfer, EVA transfer bags, 22° C.): 1.14 nM and 1.22 nM
Residual amustaline levels in pathogen-inactivated whole blood, 20 hr ([1]; 20 hr, Unit 1, 1 bag kit, no transfer, 22° C.): 1.99 nM
Residual amustaline levels in pathogen-inactivated whole blood, 22 hr ([1]; 22 hr (third container from 18 hr), Units 2-3, 3 bag kit, 2x transfer, PVC1 transfer bags, 22° C.): BLOQ (BLOQ = Below Limit of Quantitation (e.g., <0.75 nM))
Residual amustaline levels in pathogen-inactivated whole blood, 22 hr ([1]; 22 hr (third container from 18 hr), Units 4-5, 3 bag kit, 2x transfer, PVC2 transfer bags, 22° C.): BLOQ (BLOQ = Below Limit of Quantitation (e.g., <0.75 nM))
Residual amustaline levels in pathogen-inactivated whole blood, 22 hr ([1]; 22 hr (third container from 18 hr), Units 6-7, 3 bag kit, 2x transfer, EVA transfer bags, 22° C.): BLOQ (BLOQ = Below Limit of Quantitation (e.g., <0.75 nM))
level of residual amustaline at 22 hr and 24 hr, 3-container kits ([1]; 22 hr and 24 hr (4 or 6 hours after bag transfer), all samples in 3-container kits, three container types): below the limit of quantitation
Residual amustaline levels in pathogen-inactivated whole blood, 22 hr ([1]; 22 hr, Unit 1, 1 bag kit, no transfer, 22° C.): 1.46 nM
Residual amustaline levels in pathogen-inactivated whole blood, 24 hr ([1]; 24 hr (third container from 18 hr), Units 2-3, 3 bag kit, 2x transfer, PVC1 transfer bags, 22° C.): BLOQ (BLOQ = Below Limit of Quantitation (e.g., <0.75 nM))
Residual amustaline levels in pathogen-inactivated whole blood, 24 hr ([1]; 24 hr (third container from 18 hr), Units 4-5, 3 bag kit, 2x transfer, PVC2 transfer bags, 22° C.): BLOQ (BLOQ = Below Limit of Quantitation (e.g., <0.75 nM))
Residual amustaline levels in pathogen-inactivated whole blood, 24 hr ([1]; 24 hr (third container from 18 hr), Units 6-7, 3 bag kit, 2x transfer, EVA transfer bags, 22° C.): BLOQ (BLOQ = Below Limit of Quantitation (e.g., <0.75 nM))
Residual amustaline levels in pathogen-inactivated whole blood, 24 hr ([1]; 24 hr, Unit 1, 1 bag kit, no transfer, 22° C.): 1.54 nM
Residual amustaline levels in pathogen-inactivated whole blood, 20 hr ([2]; 20 hr (at transfer), Units 2-7, treated in Teruflex (T) blood collection bag, to second container at 20 hr): 2.12e-09 M and 2.32e-09 M and 1.29e-09 M and 1.62e-09 M and 1.53e-09 M and 1.92e-09 M
Residual amustaline levels in pathogen-inactivated whole blood, 20 hr ([2]; 20 hr (at transfer), Units 9-14, treated in Leucoflex (M) blood collection bag, to second container at 20 hr): 1.36e-09 M and 1.32e-09 M and 1.44e-09 M and 1.34e-09 M and 1.49e-09 M and 1.4e-09 M
Residual amustaline levels in pathogen-inactivated whole blood, 20 hr ([2]; 20 hr, Unit 1, control unit (kit of previous Examples, not transferred), collection bag T): 2.35e-09 M
Residual amustaline levels in pathogen-inactivated whole blood, 20 hr ([2]; 20 hr, Unit 8, control unit (kit of previous Examples, not transferred), collection bag M): 2.62e-09 M
Residual amustaline levels in pathogen-inactivated whole blood, 22 hr [2, 4]: 1.61 nM
Residual amustaline levels in pathogen-inactivated whole blood, 22 hr [2, 5]: 1.93 nM
Residual amustaline levels in pathogen-inactivated whole blood, 22 hr [2, 6]: BLOQ (BLOQ = Below Limit of Quantitation (e.g., < 0.75 nM))
Residual amustaline levels in pathogen-inactivated whole blood, 22 hr [2, 7]: BLOQ (BLOQ = Below Limit of Quantitation (e.g., < 0.75 nM))
Residual amustaline levels in pathogen-inactivated whole blood, 24 hr [2, 4]: 1.81 nM
Residual amustaline levels in pathogen-inactivated whole blood, 24 hr [2, 5]: 1.85 nM
Residual amustaline levels in pathogen-inactivated whole blood, 24 hr [2, 6]: BLOQ (BLOQ = Below Limit of Quantitation (e.g., < 0.75 nM))
Residual amustaline levels in pathogen-inactivated whole blood, 24 hr [2, 7]: BLOQ (BLOQ = Below Limit of Quantitation (e.g., < 0.75 nM))
Residual amustaline levels, Units transferred to the second bag at 20 hr ([2]; Units treated in blood collection bags and transferred to the second bag at 20 hr): below the limit of quantitation
Residual amustaline levels in pathogen-inactivated whole blood, 22 hr ([3]; 22 hr (time of transfer), first container 22° C. for 22 hours, then second container): 1.46 nM and 1.39 nM and 1.35 nM and 1.96 nM and 1.84 nM and 1.55 nM
Residual amustaline levels in pathogen-inactivated whole blood, 26 hr ([3]; 26 hr (4 hours post-transfer, 22° C.), second container from 22 hr): BLOQ (BLOQ = Below Limit of Quantitation (e.g., < 0.75 nM))
